Key:
[1] = test system: oxazolone-induced colitis; experiment: Mouse model of oxazolone-induced colitis; assay type: in vivo, BALB/C mice; details: PO, 1, 3, and/or 10 mg/kg BID (doses up to 10 mg/kg BID)
Description: Assay 7: Mouse Model of Oxazalone-Induced Colitis
Oxazolone-induced colitis is an experimental model that has a histological resemblance to human ulcerative colitis (Heller et al. Immunology, 2002, 17, 629-638). Adult BALB/C mice from Harlan were used in the assay. On day 1, animals were lightly anesthetized with isoflurane and the hairs between the shoulder were carefully removed before oxazolone (4%, 150 μL, 4:1 acetone:olive oil formulation) or vehicle solution was slowly applied for skin sensitization. Seven days after skin sensitization, the mice were fasted overnight, anesthetized with isoflurane inhalation, and a 1 mL syringe equipped with a 3.5-F catheter, filled with oxazolone solution, was inserted carefully about 4 cm into the colon of the mouse. Following insertion, 50 μL of the oxazolone solution (1%, 1:1 ethanol:water formulation) was injected very slowly (over 30 sec using an injection pump) into the colon. The catheter was removed and the mice were held vertically (head down) for 2 min to ensure that the entire oxazolone solution remained inside the colon. Drug treatment (PO, BID or TID) or vehicle was initiated a day prior to the oxazolone intrarectal (IR) challenge. Two-day post oxazolone intrarectal challenge, the Disease Activity Index (DAI) was assessed by treatment-blinded experimenters for each mouse according to the criteria score: stool consistency score (0, normal; 2, loose; 4, diarrhea), gross bleeding score (0, absence; 2, blood tinged; 4, presence), and weight loss score (0, none; 1, 1%-5%; 2, 5%-10^%; 3, 10%-20%; 4, more than 20%); DAI=average of (stool consistency score+gross bleeding score+weight loss score).
Selected compounds of the invention were tested in the assay. Efficacy in the model is evidenced by a decrease in DAI score as compared with the score from vehicle treated animals.

[2] = Pharmacokinetics in plasma and the GI tract in rats; assay type: in vivo, Sprague Dawley rats; details: oral dosing in preclinical species
Description: Assay 6: Pharmacokinetics in Plasma and the GI Tract in Rats and Dogs A test compound was dosed to male Sprague Dawley rats (n=3) as described in Assay 5. […] At all time points, the plasma concentration was below the limit of quantitation of 0.001 μg/mL.

[3] = First in human study of safety, tolerability and pharmacokinetics in healthy subjects; assay type: in vivo; details: by comparison to other orally administered compounds
Description: Assay 9: First in Human Study to Evaluate the Safety, Tolerability and Pharmacokinetics in Healthy Subjects
The compound of Example 1 was evaluated in a double-blinded, randomized, placebo-controlled, single ascending dose (SAD) and multiple ascending dose (MAD) study of safety, tolerability, and pharmacokinetics in healthy subjects. Pharmacokinetic samples were collected up to 72 hours post the final dose in both the SAD study (after the first dose) and MAD study (after 14 days of once-daily dosing). The SAD study enrolled 5 cohorts and the MAD study enrolled 4 cohorts totaling 72 subjects, of which 71 completed the dosing period.
Plasma pharmacokinetic (PK) parameters were determined by non-compartmental analysis using WinNonLin Version 6.4.0 (Pharsight, St Louis, Mo.). The plasma PK parameter presented here is:
Cmax: maximum concentration in plasma

[4] = test system: splenic NK, B and T cells; experiment: Immunosuppression effects in mouse splenic natural killer (NK) cells; assay type: in vivo, Balb/C mice
Description: Assay 8: Immunosuppression Effects in Mouse Splenic Natural Killer (NK) Cells Depletion of mouse splenic cells is an experimental model of immunosuppression (Kudlacz et al., Am. J. of Transplantation, 2004, 4, 51-57). […] Adult male Balb/C mice (12-14 weeks of age) from Harlan were used for the study. […] Spleens were harvested 1 or 2 h post last dose and crushed immediately for cell subtype staining. Prior to fixation, fluorophore-labelled antibodies for CD19 (FITC; B cells), CD3e (PE; pan T cells) and DX5 (APC; NK cells) were incubated with splenocyte samples from each animal to allow for simultaneous, multiple subtype % analysis on the flow cytometer. The number of total spleen cells for each animal was measured by Scepter™ 2.0 Handheld Automated Cell Counter. The absolute number of lymphocyte subtype population (e.g., splenic B, T and NK cells) was calculated from the percentage of each subtype times total spleen cells for each animal. A one way ANOVA, with Dunnett's post hoc test, was used to compare the splenic lymphocytes number of the vehicle and test compound groups. The a level was set at p<0.05. Data were presented as the mean±SEM for each group.

Cc1cc(Nc2cc3ncccc3c(N[C@@H]3C[C@H]4CC[C@@H](C3)N4CCC#N)n2)n[nH]1 [Example 1, 3-((1R,3s,5S)-3-((7-((5-methyl-1H-pyrazol-3-yl)amino)-1,6-naphthyridin-5-yl)amino)-8-azabicyclo[3.2.1]octan-8-yl)propanenitrile]
DAI score as compared with vehicle treated animals [1]: statistically significant decrease | exposure throughout the gastrointestinal tract versus exposure in plasma [2]: significantly higher exposure | oral bioavailability [3]: very low | effect of immunosuppression ([4]; mice, same dose required for efficacy in the oxazolone model): minimal effect | B and T cell populations (spleen) ([4]; mouse, PO BID three days): No treatment effect | splenic NK cell counts ([4]; mouse, PO BID three days, tofacitinib 30 mg/kg, Example 1 up to 100 mg/kg): unaffected
